Four compounds from ChEMBL document CHEMBL2202963, “GPR119 Modulators for the Treatment of Diabetes, Obesity, and Related Diseases: Patent Highlight” (ACS Med Chem Lett, 2012) can be followed below.

The target in data set [1] is T1, Glucose-dependent insulinotropic receptor (Homo sapiens, UniProt Q8TDV5).
T1 sequence (Q8TDV5 whole entry): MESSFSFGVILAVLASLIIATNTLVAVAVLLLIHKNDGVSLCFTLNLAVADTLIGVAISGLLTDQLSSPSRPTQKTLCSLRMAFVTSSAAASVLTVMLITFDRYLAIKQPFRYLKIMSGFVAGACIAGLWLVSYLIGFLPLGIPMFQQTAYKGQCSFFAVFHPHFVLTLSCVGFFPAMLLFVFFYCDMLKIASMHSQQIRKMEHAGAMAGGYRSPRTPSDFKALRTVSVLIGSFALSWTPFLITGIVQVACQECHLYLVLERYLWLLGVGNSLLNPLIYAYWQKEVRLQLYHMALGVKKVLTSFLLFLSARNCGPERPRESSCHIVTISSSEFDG
The data set can be described thus: Agonist activity at GPR119 expressed in CHO-K1 cells assessed as cAMP level after 1 hr by homogenous time-resolved fluorescence assay. The format is functional, cell-based. A general note: Cyclic AMP is a second messenger, typically raised through Gs and lowered through Gi signalling.

Data set [2] has as its target T1, Glucose-dependent insulinotropic receptor. Briefly: Agonist activity at human GPR119 expressed in MIN6 cells assessed as intracellular cAMP concentration after 45 mins by Alphascreen analysis. The format is functional, cell-based. In general terms: Alpha assays give light when donor and acceptor beads are brought close together.
For data set [3], the species on record is Mus musculus. The data set can be described thus: Drug metabolism in mouse assessed as 3-fluoro-4-(5-fluoro-6-(4-(3-(2-fluoropropan-2-yl)-1,2,4-oxadiazol-5-yl)piperidin-1-yl)pyrimidin-4-ylamino)-N-methylbenzamide metabolite by LC/MS/MS analysis. The class given is ADME, organism-based. Conditions: in vivo; call rule not given here.
The species named for data set [4] is Canis familiaris. Briefly: Drug metabolism in dog assessed as 3-fluoro-4-(5-fluoro-6-(4-(3-(2-fluoropropan-2-yl)-1,2,4-oxadiazol-5-yl)piperidin-1-yl)pyrimidin-4-ylamino)benzamide metabolite by LC/MS/MS analysis. The class given is ADME, organism-based, Canis lupus familiaris. As to conditions: in vivo.
Data set [5] concerns Rhesus monkey. Briefly: Drug metabolism in monkey assessed as 3-fluoro-4-(5-fluoro-6-(4-(3-(2-fluoropropan-2-yl)-1,2,4-oxadiazol-5-yl)piperidin-1-yl)pyrimidin-4-ylamino)-N-methylbenzamide metabolite by LC/MS/MS analysis. The format is ADME, organism-based, Macaca mulatta. As to conditions: in vivo.
Data set [6] is filed under the species Mus musculus. Briefly: Drug metabolism in mouse assessed as 3-fluoro-4-(5-fluoro-6-(4-(3-(2-fluoropropan-2-yl)-l, 2,4-oxadiazol-5-yl)piperidin-l -yl)pyrimidin-4-ylamino)benzoic acid metabolite by LC/MS/MS analysis. The class given is ADME, organism-based. As to conditions: in vivo.
The species named for data set [7] is Mus musculus. The data set can be described thus: Drug metabolism in mouse assessed as 3-fluoro-4-(5-fluoro-6-(4-(3-(2-fluoropropan-2-yl)-1,2,4-oxadiazol-5-yl)piperidin-1-yl)pyrimidin-4-ylamino)benzamide metabolite by LC/MS/MS analysis. The class given is ADME, organism-based. Conditions: in vivo.
Data set [8] concerns Rhesus monkey. The data set can be described thus: Drug metabolism in monkey assessed as 3-fluoro-4-(5-fluoro-6-(4-(3-(2-fluoropropan-2-yl)-1,2,4-oxadiazol-5-yl)piperidin-1-yl)pyrimidin-4-ylamino)benzamide metabolite by LC/MS/MS analysis. The class given is ADME, organism-based, Macaca mulatta. Conditions: in vivo.
The test system of data set [9] is Rhesus monkey. The data set can be described thus: Drug metabolism in monkey assessed as 3-fluoro-4-(5-fluoro-6-(4-(3-(2-fluoropropan-2-yl)-l, 2,4-oxadiazol-5-yl)piperidin-l -yl)pyrimidin-4-ylamino)benzoic acid metabolite by LC/MS/MS analysis. The class given is ADME, organism-based, Macaca mulatta. Conditions: in vivo.
The species named for data set [10] is Rattus norvegicus. The data set can be described thus: Drug metabolism in rat assessed as 3-fluoro-4-(5-fluoro-6-(4-(3-(2-fluoropropan-2-yl)-1,2,4-oxadiazol-5-yl)piperidin-1-yl)pyrimidin-4-ylamino)-N-methylbenzamide metabolite by LC/MS/MS analysis. The format is ADME, organism-based. As to conditions: in vivo.
Data set [11] is filed under the species Canis familiaris. Briefly: Drug metabolism in dog assessed as 3-fluoro-4-(5-fluoro-6-(4-(3-(2-fluoropropan-2-yl)-1,2,4-oxadiazol-5-yl)piperidin-1-yl)pyrimidin-4-ylamino)-N-methylbenzamide metabolite by LC/MS/MS analysis. Conditions: in vivo. The format is ADME, organism-based, Canis lupus familiaris.
Data set [12] is filed under the species Canis familiaris. Briefly: Drug metabolism in dog assessed as 3-fluoro-4-(5-fluoro-6-(4-(3-(2-fluoropropan-2-yl)-l, 2,4-oxadiazol-5-yl)piperidin-l -yl)pyrimidin-4-ylamino)benzoic acid metabolite by LC/MS/MS analysis. The format is ADME, organism-based, Canis lupus familiaris. Conditions: in vivo.
The species entered for data set [13] is Rattus norvegicus. Briefly: Drug metabolism in rat assessed as 3-fluoro-4-(5-fluoro-6-(4-(3-(2-fluoropropan-2-yl)-1,2,4-oxadiazol-5-yl)piperidin-1-yl)pyrimidin-4-ylamino)benzamide metabolite by LC/MS/MS analysis. The class given is ADME, organism-based. Conditions: in vivo.
The species named for data set [14] is Rattus norvegicus. Briefly: Drug metabolism in rat assessed as 3-fluoro-4-(5-fluoro-6-(4-(3-(2-fluoropropan-2-yl)-l, 2,4-oxadiazol-5-yl)piperidin-l -yl)pyrimidin-4-ylamino)benzoic acid metabolite by LC/MS/MS analysis. The class given is ADME, organism-based. As to conditions: in vivo.

Consider `CC(C)(F)c1noc(C2CCN(c3ncnc(Nc4ccc(C(=O)O)cc4F)c3F)CC2)n1`, for which the EC50 in data set [1] stood at 100000 nM.

`CCc1cnc(N2CCC(C3Cc4cc(C5CCN(S(C)(=O)=O)CC5)ncc4O3)CC2)nc1` (stereo not given): in data set [2], the EC50 was determined as 2 nM.

`CCc1cnc(N2CCC(C3Cc4cc(-c5ccc(C(=O)N6CC(F)(F)C6)cc5)ccc4O3)CC2)nc1` (stereo not given): the EC50 in [2] stood at 228 nM.

For the compound `CN(C)C(=O)c1ccc(Nc2ncnc(N3CCC(c4nc(C(C)(C)F)no4)CC3)c2F)c(F)c1`, the Drug metabolism result in the data set filed under Mus musculus [3], in the data set listed under Canis familiaris [4], in the data set with Rhesus monkey [5], in the data set filed under Mus musculus [6], in the data set listed under Mus musculus [7] and with Rhesus monkey [8] was “Active” in each case. Also, the Drug metabolism entry in the data set with Rhesus monkey [9], in the data set listed under Rattus norvegicus [10], in the data set filed under Canis familiaris [11], in the data set filed under Canis familiaris [12], in the data set listed under Rattus norvegicus [13] and in the data set listed under Rattus norvegicus [14] was “Active” each time.

As usually defined, the EC50 is the midpoint of the concentration-response curve.
